Patent publication US9085554B2, “Method of evaluating pharmaceutical preparation containing luliconazole and index substance” (POLA PHARMA INC., priority 2013, dated 2015)

Legend:
fungi = assay: Antifungal activity of the amide form
[1] = Severe test / accelerated test of luliconazole as the active ingredient; type: physicochemical
Text: Further, it is considered that this amide form is produced by the addition of water with respect to a cyano group of the luliconazole. […] Namely, the presence of the amide form is speculated; however, the substance thereof has not been understood. Accordingly, it is difficult to speculate in the stage of manufacturing the pharmaceutical preparation that such a compound may be produced under a storage condition depending on the type of the solvent.
The severe condition herein refers to a storage condition at 60° C. for 3 weeks, and the accelerated condition herein refers to a storage condition at 40° C. for 6 months. The stability of a pharmaceutical preparation containing luliconazole has shown very good consistency between the severe condition and the accelerated condition. Accordingly, either of the conditions can be used. Further, the storage at 40° C. for 6 months is known as a condition substitutable for the condition at a room temperature for 3 years in an application for manufacturing approval of a pharmaceutical.
It is known that water is usually readily added to a cyano group by an acid or a base and the amide form is thereby produced. However, this generality is not applicable in the case of luliconazole, for the following reason. […]

Row | Production of SE form and Z form ([1]; accelerated test and/or severe test) | Production of amide form from luliconazole active ingredient ([1]; severe test (60° C., 3 weeks) or accelerated test (40° C., 6 months) of the active ingredient) | SMILES | Antifungal activity (fungi)
1 |  |  | NC(=O)/C(=C1/SC[C@@H](c2ccc(Cl)cc2Cl)S1)n1ccnc1 [amide form, [R-(E)]-α-[4-(2,4-dichlorophenyl)-1,3-dithiolan-2-ylidene]-1H-imidazole-1-acetamide] | low
2 | relatively readily produced | hardly produced | N#C/C(=C1/SC[C@@H](c2ccc(Cl)cc2Cl)S1)n1ccnc1 [luliconazole, Luliconazole] | 
